Assay [1] has as its system MC 38, mouse colon carcinoma cells. The assay can be described thus: Subcutaneous tumor model of MC38 colon carcinoma cells in C57Bl/6 mice, tumor growth. The settings on record: agent alone i.p. on day 10, 13, 16; compared with non-treated group; afterwards growth as in non-treated group. The format is in vivo. The procedure:
(§1) The MC 38, mouse colon carcinoma cells or B16, melanoma cells were subcutaneously injected to the back of 6-week-old C57BI/6 mice (1×10^5 cells/mouse). After the tumor diameter (longer diameter) reached 5 mm (25 to 30 mm^2) (day 10), an anti-cancer agent and/or an anti-MFG-E8 antibody were/was intraperitoneally administered to each mouse on day 10, day 13, and day 16 according to any of the following protocols. The experiments according to each protocol were performed twice. The employed anti-MFG-E8 antibody was a blocking antibody commercially available from MBL. In protocols 1 to 4, MC38 was used, and B16 melanoma was used in protocol 5.
• Gemcitabine (GEM): 4 mg/kg • Gemcitabine (GEM): 1 mg/kg • Anti-MFG-E8 antibody: 1 mg/kg • Gemcitabine (GEM): 4 mg/kg+anti-MFG-E8 antibody: 1 mg/kg • Gemcitabine (GEM): 1 mg/kg+anti-MFG-E8 antibody: 1 mg/kg Protocol 2: • CPT-11: 1 mg/kg • 5-FU: 0.1 M • Anti-MFG-E8 antibody: 1 mg/kg • CPT-11: 1 mg/kg+anti-MFG-E8 antibody: 1 mg/kg • 5-FU: 0.1 M+anti-MFG-E8 antibody: 1 mg/kg Protocol 3: • Epidermal growth factor receptor tyrosine kinase 1 (EGFR-TK1): […] • Anti-vascular endothelial growth factor receptor-2 monoclonal antibody (α-VEGFR-2Ab): 40 mg/kg • Anti-MFG-E8 antibody: 1 mg/kg Protocol 4: • Irradiation (XRT): 3 Gy/day×5 • Anti-MFG-E8 antibody: 1 mg/kg Protocol 5: • Doxorubicin (Dox): 5 mg/kg • Etoposide (Etop): 2 mg/kg • Anti-MFG-E8 antibody: 1 mg/kg (Results)

Another assay deals with B16, melanoma cells. The assay can be described thus: Subcutaneous tumor model of B16 melanoma cells in C57Bl/6 mice, tumor growth. The assay is classed as in vivo, mouse. The settings on record: agent alone i.p. on day 10, 13, 16; compared with non-treated group; afterwards growth as in non-treated group. As for the experimental part:
as §1, with “5. […]” for “5.”

The next assay concerns Dendritic cells (BMDCs). The assay is described as follows: Cytokine concentrations of BMDC culture supernatant, ELISA. To be noted: recombinant MFG-E8 100 ng/mL or anti-MFG-E8 monoclonal antibody 20 μg/mL overnight. The format is cell-based, mouse. As for the experimental part:
Dendritic cells (BMDCs) were prepared through culturing myeloid progenitor cells for seven days in a GM-CSF containing medium, and treated overnight with recombinant MFG-E8 (100 ng/mL, product of R&D Systems), an anti-MFG-E8 monoclonal antibody (20 μg/mL, MBL), or a polyclonal MFG-E8 anti-serum (20 μg/mL). The IL-12, IL-23, TNF-α, and IL-10 concentrations of the culture supernatant were determined with ELISA. On day 7, BMDCs were co-cultured with PKH26 (Sigma-Aldrich)-labeled EG.7-OVA cells using a 12-well plate (ratio: 1:10), and phagocytosis was determined with flow cytometry. A similar experiment was performed using tumor cells treated for 30 minutes with an anti-MFG-E8 monoclonal antibody ([…]) before the co-culture. The effect of αvβ3 integrin-blocking antibody (RMV-7, product of Millipore) or Fc-receptor-blocking antibody (product of BD Bioscience) was also evaluated on the intake of tumor cells. Cross-presentation was tested using the following procedure. Specifically, naive CD4^+ T cells were isolated from the spleen of C57BL/6-Tg (ACTB-OVA) 916Jen/J mice using magnetic cell sorting (product of Miltenyi Biotech). The thus-isolated cells were added to the dendritic cells to which tumor cells had been loaded for 24 hours. Expression of IFN-γ within the cells was measured with flow cytometry.
(ELISA stands for enzyme-linked immunosorbent assay.)

Another assay concerns dendritic cells. The assay can be described thus: OVA-specific T cell activity in mixed culture with treated dendritic cells, intracellular IFN-γ and IL-10. The format is cell-based, mouse. To be noted: dendritic cells treated with MFG-E8 recombinant protein 100 μg/mL or anti-MFG-E8 antibody 20 μg/mL; 72 h; compared to control. An excerpt:
The mechanisms of activation of dendritic cells and T cells through employment of the anti-MFG-E8 antibody and the anti-cancer agent, such activation having been observed in vivo, were further investigated in vitro by using a mixed culture system.
Specifically, ovalbumin (OVA) was employed as a model antigen. In a specific procedure, bone marrow cells were collected from DO11.10 (MHC class II-restricting OVA antigen transgenic mice), and differentiation to dendritic cells was induced with granulocyte-monocyte colony-stimulating factor (GM-CSF). Seven days after the initiation of the differentiation induction, the cells were treated with MFG-E8 recombinant protein (100 μg/mL) or anti-MFG-E8 antibody (20 μg/mL). Thereafter, on day 8, the thus-treated cells were pulsed with MHC class II OVA-restricting OVA peptide ([…]) or a negative control peptide (HSA) for six hours. The resultant cells were admixed with naive CD4+ positive T cells derived from syngeneic (Balb/c) mice in such an amount that the ratio of dendritic cells to CD4+ T cells was adjusted to 1:10, and the cell mixture was cultured in the presence of an anti-CD3 antibody (0.1 μg/mL). Seventy-two hours after, the activity of T cells was determined through flow cytometry, in terms of intracellular expression of IFN-γ and IL-10.

With `Nc1ccn([C@@H]2O[C@H](CO)[C@@H](O)C2(F)F)c(=O)n1` [GEM, gemcitabine], in assay [1], the “tumor growth, anti-cancer agent alone” value is reported as “tumor growth was significantly suppressed for 5 to 10 days after administration”.

On to `O=c1[nH]cc(F)c(=O)[nH]1` [5FU, 5-FU], for which the “tumor growth, anti-cancer agent alone” value in assay [1] is listed as “tumor growth was significantly suppressed for 5 to 10 days after administration”.

In the case of `COc1cc([C@@H]2c3cc4c(cc3[C@@H](O[C@@H]3O[C@@H]5CO[C@@H](C)O[C@H]5[C@H](O)[C@H]3O)[C@H]3COC(=O)[C@H]23)OCO4)cc(OC)c1O` [etoposide], the “tumor growth, anti-cancer agent alone” value in the assay on B16, melanoma cells is “tumor growth was significantly suppressed for 5 to 10 days after administration”.

Regarding `COc1cccc2c1C(=O)c1c(O)c3c(c(O)c1C2=O)C[C@@](O)(C(=O)CO)C[C@@H]3O[C@H]1C[C@H](N)[C@H](O)[C@H](C)O1` [doxorubicin], the “tumor growth, anti-cancer agent alone” value in the assay with B16, melanoma cells is reported as “tumor growth was significantly suppressed for 5 to 10 days after administration”.

Turning to `CCc1c2c(nc3ccc(OC(=O)N4CCC(N5CCCCC5)CC4)cc13)-c1cc3c(c(=O)n1C2)COC(=O)[C@]3(O)CC` [CPT-11], in assay [1], the “tumor growth, anti-cancer agent alone” value was “tumor growth was significantly suppressed for 5 to 10 days after administration”.

B1: MFG-E8: MFG-E8 recombinant protein (product of R&D Systems in Example 11) (protein, UniProt Q08431 24-387, looked up)
Lactadherin: LDICSKNPCHNGGLCEEISQEVRGDVFPSYTCTCLKGYAGNHCETKCVEPLGLENGNIANSQIAASSVRVTFLGLQHWVPELARLNRAGMVNAWTPSSNDDNPWIQVNLLRRMWVTGVVTQGASRLASHEYLKAFKVAYSLNGHEFDFIHDVNKKHKEFVGNWNKNAVHVNLFETPVEAQYVRLYPTSCHTACTLRFELLGCELNGCANPLGLKNNSIPDKQITASSSYKTWGLHLFSWNPSYARLDKQGNFNAWVAGSYGNDQWLQVDLGSSKEVTGIITQGARNFGSVQFVASYKVAYSNDSANWTEYQDPRTGSSKIFPGNWDNHSHKKNLFETPILARYVRILPVAWHNRIALRLELLGC
On to B1, for which the “IL-10 production by dendritic cells” value in the assay on Dendritic cells (BMDCs) was “enhanced secretion of IL-10”. In the assay on dendritic cells, the IL-10 production result is given as “potentiation” and the “OVA-specific IFN-γ production” value was “suppression”.

These data come from patent US9226934B2, “Anti-cancer drug” (THE UNIVERSITY OF TOKYO, priority 2008, dated 2016).
